The text below walks through data of patent US20230357313A1, “SERUM RESISTANT BIS-SULFHYDRYL SPECIFIC BIOTINYLATION REAGENT” (Miltenyi Biotec B.V. & Co. KG, priority 2022, published 2023).

This experiment deals with T1, biotinidase (Homo sapiens, UniProt P43251).
T1 construct: from tissue
T1 sequence (P43251 22-523): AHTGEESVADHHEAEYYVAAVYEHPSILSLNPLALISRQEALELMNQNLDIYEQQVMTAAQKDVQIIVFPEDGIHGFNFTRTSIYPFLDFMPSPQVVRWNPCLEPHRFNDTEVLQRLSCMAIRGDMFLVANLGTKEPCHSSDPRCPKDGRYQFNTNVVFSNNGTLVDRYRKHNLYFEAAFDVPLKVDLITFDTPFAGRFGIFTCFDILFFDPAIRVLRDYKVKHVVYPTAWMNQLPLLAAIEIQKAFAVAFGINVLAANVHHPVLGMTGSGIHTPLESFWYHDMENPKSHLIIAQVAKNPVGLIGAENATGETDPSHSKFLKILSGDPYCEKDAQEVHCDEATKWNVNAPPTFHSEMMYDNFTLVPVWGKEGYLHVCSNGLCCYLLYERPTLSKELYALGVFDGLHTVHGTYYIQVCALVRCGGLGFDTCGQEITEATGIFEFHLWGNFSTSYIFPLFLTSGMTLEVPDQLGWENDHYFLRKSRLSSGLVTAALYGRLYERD
Nature of the experiment: Biotinidase inhibitor experiment: MS9 anti-CD33 Fab in human serum with or without inhibitor, LC-MS. To be noted: 1 mM in human serum, 4 h at 37° C. The class given is biochemical. The method, then:
To verify that biotinidase, an enzyme found in the human body amongst other in human serum, causes the cleavage of the biotinamide bond an experiment was performed with a biotinidase inhibitor ((+) Biotin 4 Amidobenzoic Acid, Cayman, CAS. 102418-74-6). Therefore (+) Biotin 4 Amidobenzoic Acid was added at a concentration of 1 mM into the pre-incubation mix containing the human serum. As control no inhibitor was added. The anti-CD33 Fab with MS9 was pre-incubated for 4 hours at 37° C. Subsequently after the incubation the samples were purified via an IgG-CHI Affinity matrix as previously described.
FIG. 5A and FIG. 5B show biotinidase as causative agent for instability of linker in non-heat inactivated serum. Biotinylated (MS9) anti-CD33 FAbs were incubated in freshly prepared human serum for 4 h at 37° C. in the presence (left panel) or absence (right panel) of 1 mM Biotin 4-amidobenzoic acid.

On to `O=C(CCCC[C@@H]1SC[C@@H]2NC(=O)N[C@@H]21)Nc1ccc(C(=O)[O-])cc1.[Na+]` [Biotin 4-amidobenzoic acid, (+) Biotin 4 Amidobenzoic Acid], for which the “effect of biotinidase inhibitor on biotinamide bond degradation” value is recorded as “protects the biotinamide bond from degradation”.
